{"source": "patent US20230263789A1", "about": "“PHARMACEUTICAL COMPOSITION AND PREPARATION METHOD” (JIANGSU KANION PHARMACEUTICAL CO., LTD., priority 2020, published 2023)", "test": "Preliminary test: dissolution of compound A with an acidic regulator", "assay_type": "physicochemical", "conditions": "with an acidic regulator (citric acid or tartaric acid)", "excerpt": "To improve the solubility of insoluble medicines, surfactants, acid-base regulators and the like are mostly used in the prior art. […] However, the granules obtained in the preliminary study process can solve the problem of solubility, but the stability is insufficient. Therefore, how to improve the solubility of the active substance provided by the present invention and ensure the stability has become a difficult point in a medicine technology.", "note": "Structures can show the parent of a compound that is named as a salt."}
{"smiles": "CCn1nnc(-c2ccc(OCCC(C)(C)CCN3CCN(c4ccnc(N)c4)S3(=O)=O)nc2)n1", "note": "[compound A, 2-(2-aminopyridine-4-yl)-5-(5-((5-(2-ethyl-2H-tetrazole-5-yl)pyridine-2-yl)-oxy)-3,3-amyldimethyl)-1,2,5-thiadiazolidin 1,1-dioxide hydrochloride]", "values": [{"measurement": "Dissolution of compound A", "result": "complete dissolution"}]}
